Experimental data published in patent US7598397B2, “Sulfonamide peri-substituted bicyclics for occlusive artery disease” (deCODE genetics ehf, priority 2004, dated 2009).

These molecules were tested against T1, prostanoid EP3 receptors (Homo sapiens, UniProt P43115) (assay: binding on prostanoid EP3 receptors (method of Abramovitz et al.)). Conditions: read-out: Activity (EP3 receptor binding, IC50 class).
T1 sequence (P43115 1-390): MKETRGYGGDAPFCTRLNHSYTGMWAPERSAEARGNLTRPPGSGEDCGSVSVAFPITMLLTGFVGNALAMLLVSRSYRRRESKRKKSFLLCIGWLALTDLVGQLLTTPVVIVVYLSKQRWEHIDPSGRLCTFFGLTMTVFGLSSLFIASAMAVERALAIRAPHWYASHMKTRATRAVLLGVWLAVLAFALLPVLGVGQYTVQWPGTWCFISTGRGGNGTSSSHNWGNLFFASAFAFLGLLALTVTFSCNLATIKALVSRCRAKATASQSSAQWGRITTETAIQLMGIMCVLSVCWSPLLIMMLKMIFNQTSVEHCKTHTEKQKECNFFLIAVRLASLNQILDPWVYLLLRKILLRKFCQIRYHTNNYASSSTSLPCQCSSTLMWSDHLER
Description: The compounds of the invention were assayed for their binding on prostanoid EP3 receptors according to the method of Abramovitz et al. [Bioch. Biophys.

IC50	Structure (SMILES)
< 1000 nM	CC1C(=O)N(Cc2ccc3ccccc3c2)c2c(C=CC(=O)NS(=O)(=O)c3cc(Cl)c(Cl)s3)cccc21 (centres unmarked) [Compound P112]
< 1000 nM	O=C(COc1cccc2oc(=O)n(Cc3ccc4ccccc4c3)c12)NS(=O)(=O)c1cccs1 [Compound P046]
< 1000 nM	Cc1cn(Cc2ccc(F)c(F)c2)c2c(/C=C/C(=O)NS(=O)(=O)c3cc(Cl)c(Cl)s3)cccc12 [Compound P135]
< 1000 nM	COc1cccc(CN2C(=O)CC3(C)CCCC(C=CC(=O)NS(=O)(=O)c4cc(Cl)c(Cl)s4)=C23)c1 (centres unmarked) [Compound P260]
1000 to 10000 nM	Cc1ccc(C)c(CN2C(=O)COc3cccc(OCC(=O)NS(=O)(=O)c4cccs4)c32)c1 [Compound P021]
< 1000 nM	Cc1cn(Cc2ccc3c(c2)OCO3)c2c(/C=C/C(=O)NS(=O)(=O)c3cccs3)cccc12 [Compound P101]
< 1000 nM	O=C(C=Cc1cccc2c1C(Nc1ccc3ccccc3c1)C(=O)N2)NS(=O)(=O)c1cc(Cl)c(Cl)s1 (centres unmarked) [Compound P241]
< 1000 nM	O=C(C=Cc1cccc2c1N(Cc1ccc(Cl)cc1Cl)C(=O)C2O)NS(=O)(=O)c1cc(Cl)c(Cl)s1 (centres unmarked) [Compound P130]
1000 to 10000 nM	CC(C)c1cn(Cc2ccc(Cl)cc2Cl)c2c(CCC(=O)NS(=O)(=O)c3cccs3)cccc12 [Compound P091]
< 1000 nM	Cc1cn(CCC(=O)NS(=O)(=O)c2cc(Cl)c(Cl)s2)c2c(Oc3ccc(Cl)c(Cl)c3)cc(F)cc12 [Compound P388]
< 1000 nM	Cc1cn(Cc2ccc(F)c(F)c2)c2c(/C=C/C(=O)NS(=O)(=O)c3cccs3)cccc12 [Compound P103]
< 1000 nM	Cn1cc(C=CC(=O)NS(=O)(=O)c2cc(Cl)c(Cl)s2)c2c(Oc3ccc(F)cc3Cl)cccc21 [Compound P342]
< 1000 nM	Cn1cc(C=CC(=O)NS(=O)(=O)c2cc(Cl)c(Cl)s2)c2c(Oc3ccc(F)c(F)c3)cccc21 [Compound P320]
< 1000 nM	CC12CCCC(C=CC(=O)NS(=O)(=O)c3cc(F)c(F)cc3F)=C1N(Cc1ccc(Cl)cc1Cl)C(=O)C2 (centres unmarked) [Compound P275]
< 1000 nM	CN1C(=O)C(C)(Cc2ccc3ccccc3c2)c2c(CCC(=O)NS(=O)(=O)c3cc(Cl)c(Cl)s3)cccc21 (centres unmarked) [Compound P156]
< 1000 nM	O=C(C=Cc1cccc2ccn(Cc3ccc4ccccc4c3)c12)NS(=O)(=O)C(F)(F)F [Compound P016]
< 1000 nM	O=C(C=Cc1cccc2c1N(Cc1ccc(Cl)cc1Cl)C(=O)C2(O)C[N+](=O)[O-])NS(=O)(=O)c1cc(Cl)c(Cl)s1 (centres unmarked) [Compound P134]
< 1000 nM	CC1C(=O)N(Cc2ccc3ccccc3c2)c2c(C=CC(=O)NS(=O)(=O)c3cccs3)cc(F)cc21 (centres unmarked) [Compound P066]
< 1000 nM	CC12CCCC(CCC(=O)NS(=O)(=O)c3cc(F)c(F)cc3F)C1N(Cc1ccc(F)c(F)c1)C(=O)C2 (centres unmarked) [Compound P410]
< 1000 nM	Cc1cn(Cc2cn3ccccc3n2)c2c(C=CC(=O)NS(=O)(=O)c3ccc(Cl)c(Cl)c3)cc(F)cc12 [Compound P406]
< 1000 nM	O=C(C=Cc1cccc2c1N(Cc1ccc3ccccc3c1)C(=O)C2=O)NS(=O)(=O)c1cc(Cl)c(Cl)s1 [Compound P115]

IC50	Structure (SMILES)
< 1000 nM	O=C(C=Cc1cccc2c1N(Cc1ccc3ccccc3c1)C(=O)C2)NS(=O)(=O)c1cccs1 [Compound P217]
< 1000 nM	COc1ccccc1Sc1c[nH]c2cccc(OCC(=O)NS(=O)(=O)c3cc(Cl)c(Cl)s3)c12 [Compound P212]
< 1000 nM	CC12CCCC(C=CC(=O)NS(=O)(=O)c3cc(Cl)c(Cl)s3)=C1N(Cc1ccc(F)cc1)C(=O)C2 (centres unmarked) [Compound P263]
< 1000 nM	Cc1cn(Cc2cn3ccccc3n2)c2c(C=CC(=O)NS(=O)(=O)c3ccc(F)cc3F)cc(F)cc12 [Compound P413]
< 1000 nM	Cn1cc(C=CC(=O)NS(=O)(=O)c2ccc(F)c(F)c2)c2c(Oc3ccc(Cl)cc3)cccc21 [Compound P310]
< 1000 nM	COc1cc(Cn2cc(C)c3cc(F)cc(C=CC(=O)NS(=O)(=O)c4ccc(F)c(F)c4)c32)cc(OC)c1 [Compound P374]
< 1000 nM	Cc1cn(Cc2ccc3c(c2)OCO3)c2c(/C=C/C(=O)NS(=O)(=O)c3cc(Cl)c(Cl)s3)cccc12 [Compound P139]
< 1000 nM	Cc1cn(Cc2cc(F)cc3c2OCOC3)c2c(/C=C/C(=O)NS(=O)(=O)c3cccs3)cccc12 [Compound P102]
< 1000 nM	Cn1cc(C=CC(=O)NS(=O)(=O)c2cc(F)c(F)cc2F)c2c(Oc3ccc(Cl)cc3F)cccc21 [Compound P337]
< 1000 nM	O=C(COc1cccc2c1C(F)(Cc1ccc3ccccc3c1)C(=O)N2)NS(=O)(=O)c1cc(Cl)c(Cl)s1 (centres unmarked) [Compound P157]
< 1000 nM	CC12CCCC(CCC(=O)NS(=O)(=O)c3cc(Cl)c(Cl)s3)C1N(Cc1ccc(F)c(F)c1)C(=O)C2 (centres unmarked) [Compound P415]
< 1000 nM	CN1C(=O)C(S(=O)(=O)c2ccc3ccccc3c2)c2c(OCC(=O)NS(=O)(=O)c3cc(Cl)c(Cl)s3)cccc21 (centres unmarked) [Compound P248]
< 1000 nM	CC1C(=O)N(Cc2ccc(Cl)cc2Cl)c2c(C=CC(=O)NS(=O)(=O)c3cccs3)cccc21 (centres unmarked) [Compound P058]
< 1000 nM	O=C(COc1cccc2[nH]cc(Sc3nc4ccccc4o3)c12)NS(=O)(=O)c1cc(Cl)c(Cl)s1 [Compound P181]
1000 to 10000 nM	Cn1nc(NS(=O)(=O)c2cc(Cl)c(Cl)s2)c2c(Oc3ccc4ccccc4c3)cccc21 [Compound P284, 4,5-Dichloro-thiophene-2-sulfonic acid [1-methyl-4-(naphthalen-2-yloxy)-1H-indazol-3-yl]-amide]
< 1000 nM	CC(=O)c1cn(Cc2ccc(Cl)cc2Cl)c2c(C=CC(=O)NS(=O)(=O)c3cccs3)cccc12 [Compound P085]
< 1000 nM	Cc1cn(Cc2ccc3ccccc3c2)c2c(CCC(=O)NS(=O)(=O)c3cc(Cl)c(Cl)s3)cccc12 [Compound P073]
< 1000 nM	CN1C(=O)C(C)(Cc2ccc3ccccc3c2)c2c(C=CC(=O)NS(=O)(=O)c3cc(Cl)c(Cl)s3)cccc21 (centres unmarked) [Compound P148]
< 1000 nM	Cc1cn(Cc2cn3ccccc3n2)c2c(C=CC(=O)NS(=O)(=O)c3cc(Cl)cc(Cl)c3)cc(F)cc12 [Compound P408]
< 1000 nM	CC1(F)C(=O)N(Cc2ccc3ccccc3c2)c2c(C=CC(=O)NS(=O)(=O)c3cc(Cl)c(Cl)s3)cccc21 (centres unmarked) [Compound P161]
> 10000 nM	O=C(COc1cccc2c1N(Cc1ccc(F)cc1)C(=O)CO2)NS(=O)(=O)c1cccs1 [Compound P024]

IC50	Structure (SMILES)
< 1000 nM	Cn1cc(/C=C/C(=O)NS(=O)(=O)c2cc(Cl)c(Cl)s2)c2c(Oc3ccc(F)cc3F)cccc21 [Compound P326]
< 1000 nM	O=C(/C=C/c1cccc2c1N(Cc1ccc3ccccc3c1)CC2)NS(=O)(=O)c1cccs1 [Compound P003]
< 1000 nM	Cc1cn(Cc2ccc3ccccc3n2)c2c(/C=C/C(=O)NS(=O)(=O)c3cc(Cl)c(Cl)s3)cccc12 [Compound P146]
< 1000 nM	O=C(COc1cccc2[nH]cc(Sc3ccccc3Cl)c12)NS(=O)(=O)c1cc(Cl)c(Cl)s1 [Compound P213]
< 1000 nM	Cc1cn(Cc2cn3ccccc3n2)c2c(C=CC(=O)NS(=O)(=O)c3ccccc3F)cc(F)cc12 [Compound P409]
< 1000 nM	Cn1cc(C=CC(=O)NS(=O)(=O)c2cc(F)ccc2F)c2c(Oc3ccc4ccccc4c3)cccc21 [Compound P359]
< 1000 nM	O=C(COc1cccc2[nH]cc(Sc3nc4ccccc4s3)c12)NS(=O)(=O)c1cc(Cl)c(Cl)s1 [Compound P182]
< 1000 nM	CC12CCCC(C=CC(=O)NS(=O)(=O)c3cc(F)cc(F)c3)=C1N(Cc1cccc(Cl)c1Cl)C(=O)C2 (centres unmarked) [Compound P298]
< 1000 nM	O=C(COc1cccc2[nH]cc(S(=O)(=O)c3ccc(F)cc3Cl)c12)NS(=O)(=O)c1cc(Cl)c(Cl)s1 [Compound P234]
< 1000 nM	O=C(COc1cccc2[nH]cc(S(=O)(=O)c3ccc4ccccc4c3)c12)NS(=O)(=O)c1cc(F)c(F)cc1F [Compound P237]
< 1000 nM	COc1cc(Cn2cc(C)c3cccc(/C=C/C(=O)NS(=O)(=O)c4cc(Cl)c(Cl)s4)c32)cc(OC)c1 [Compound P141]
< 1000 nM	COc1ccc(Sc2c[nH]c3cccc(OCC(=O)NS(=O)(=O)c4cc(Cl)c(Cl)s4)c23)cc1 [Compound P200]
< 1000 nM	Cn1cc(C=CC(=O)NS(=O)(=O)c2cc(F)c(F)cc2F)c2c(Oc3ccc(Cl)c(F)c3)cccc21 [Compound P331]
< 1000 nM	CC12CCCC(C=CC(=O)NS(=O)(=O)c3cccc(Cl)c3)=C1N(Cc1ccc(Cl)cc1Cl)C(=O)C2 (centres unmarked) [Compound P281]
< 1000 nM	CN1C(=O)C(Oc2ccc3ccccc3c2)c2c(/C=C/C(=O)NS(=O)(=O)c3cc(Cl)c(Cl)s3)cccc21 (centres unmarked) [Compound P265, 4,5-dichloro-thiophene-2-sulfonic acid {(E)-3-[1-methyl-3-(naphthalen-2-yloxy)-2-oxo-2,3-dihydro-1H-indol-4-yl]-acryloyl}-amide]
< 1000 nM	Cn1cc(C=CC(=O)NS(=O)(=O)c2ccc(F)c(F)c2)c2c(Oc3ccc(Cl)c(Cl)c3)cccc21 [Compound P293]
< 1000 nM	COc1cccc(Cn2cc(C)c3cccc(/C=C/C(=O)NS(=O)(=O)c4cc(Cl)c(Cl)s4)c32)c1 [Compound P142]
< 1000 nM	O=C(COc1cccc2oc(=O)n(Cc3ccc(Cl)c(Cl)c3)c12)NS(=O)(=O)c1cccs1 [Compound P051]
< 1000 nM	Cn1cc(C=CC(=O)NS(=O)(=O)c2cccc(Cl)c2)c2c(Oc3ccc4ccccc4c3)cccc21 [Compound P353]
< 1000 nM	Cc1cn(Cc2ccccc2)c2c(/C=C/C(=O)NS(=O)(=O)c3cccs3)cccc12 [Compound P084]
